Data published in patent US20230373934A1, “ANDROGEN RECEPTOR MODULATORS AND METHODS FOR THEIR USE” (ESSA Pharma, Inc., priority 2022, published 2023).

What follows are compounds tested against T1, androgen receptor (AR) (Homo sapiens, UniProt P10275, T878A) (assay: Androgen-induced PSA-luciferase assay, Luciferase Assay A (LNCaP transiently transfected with PSA (6.1 kb)-luciferase reporter)). Conditions: LNCaP cells, 1 h pretreatment, R1881 (1 nM) 24 h, read-out: PSA-Luc IC50 Range.
T1 construct: endogenous in cells; host or cells: LNCaP
T1 sequence (P10275 1-920 T878A): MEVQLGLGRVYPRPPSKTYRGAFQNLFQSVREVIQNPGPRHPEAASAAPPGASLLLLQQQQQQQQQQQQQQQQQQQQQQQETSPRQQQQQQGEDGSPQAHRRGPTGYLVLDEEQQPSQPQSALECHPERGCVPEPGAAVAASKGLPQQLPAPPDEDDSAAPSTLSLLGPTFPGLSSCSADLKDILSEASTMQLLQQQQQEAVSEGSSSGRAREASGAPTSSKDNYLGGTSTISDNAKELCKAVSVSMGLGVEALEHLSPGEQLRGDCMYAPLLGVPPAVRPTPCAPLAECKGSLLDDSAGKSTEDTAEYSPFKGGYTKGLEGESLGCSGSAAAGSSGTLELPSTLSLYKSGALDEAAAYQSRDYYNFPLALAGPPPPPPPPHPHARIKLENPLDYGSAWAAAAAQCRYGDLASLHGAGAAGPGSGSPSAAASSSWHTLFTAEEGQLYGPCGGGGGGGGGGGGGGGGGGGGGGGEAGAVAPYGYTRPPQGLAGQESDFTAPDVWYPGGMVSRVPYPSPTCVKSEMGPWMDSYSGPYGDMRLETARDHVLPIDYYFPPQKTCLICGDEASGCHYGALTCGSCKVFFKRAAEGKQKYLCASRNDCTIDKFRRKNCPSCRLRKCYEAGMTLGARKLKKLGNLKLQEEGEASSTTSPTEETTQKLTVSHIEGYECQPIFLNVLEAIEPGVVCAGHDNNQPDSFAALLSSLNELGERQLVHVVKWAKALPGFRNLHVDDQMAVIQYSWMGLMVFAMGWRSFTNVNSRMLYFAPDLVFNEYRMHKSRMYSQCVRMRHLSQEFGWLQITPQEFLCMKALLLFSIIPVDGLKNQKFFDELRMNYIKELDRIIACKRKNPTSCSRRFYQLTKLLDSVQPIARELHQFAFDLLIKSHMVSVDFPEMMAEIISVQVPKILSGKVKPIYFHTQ
Assay type: cell-based
Method: The PSA (6.1 kb)-luciferase reporter contains functional AREs (androgen response elements) to which AR binds in response to androgen to induce luciferase activity. LNCaP cells were transiently transfected with the PSA (6.1 kb)-luciferase reporter for 24 h, and then pretreated with vehicle (DMSO) or indicated concentration of representative compounds for one hour prior to the addition of synthetic androgen, R1881 (1 nM). After 24 h of incubation with R1881, the cells were harvested, and relative luciferase activities were determined (FIG. 1). To determine the IC50, treatments were normalized to vehicle control activity induced by R1881 (Table 2).
Luciferase Assay A: Cells were lysed using Passive Lysis Buffer (Promega) and then collected into V-bottom 96-well tissue culture plates. Lysates were centrifuged at 4° C. for 5 minutes at 3000 rpm. To measure luminescence of LNCaP cell lysates the Firefly Luciferase Assay System (Promega) was employed, according to manufacturer's protocol. Relative luminescence units (RLU) in cell lysates were detected for 10 seconds using Promega GloMax-Multi Detection Luminometer (Promega). Values were normalized to protein content. GraphPad Prism graphing software was used to calculate IC50 values. Luciferase Assay A was run for all compounds in Table 2 unless otherwise noted below.
Statistical analyses were performed using GraphPad Prism (Version 6.01 for Windows; La Jolla, CA, USA). Comparisons between treatment and control groups were compared using Two-Way ANOVA with post-hoc Dunnett's and Tukey's tests. Differences were considered statistically significant at P values less than 0.05.

| SMILES | IC50 [nM] |
| --- | --- |
| CC(C)(c1ccc(OCc2ccnc(NS(C)(=O)=O)n2)cc1)c1cc(Cl)c(OC(F)F)c(C#N)c1 [Compound A42] | 500 to 2000 |
| CC(C)(c1ccc(-n2cc(N3CC(NS(C)(=O)=O)C3)cn2)cc1)c1cc(Cl)c(OCCCl)c(C#N)c1 [Compound A45] | 500 to 2000 |
| CC(C)(c1ccc(CN2CC(NS(C)(=O)=O)CC(F)(F)C2)cc1)c1cc(Cl)c(OCCCl)c(C#N)c1 (stereo not drawn) [Compound A46] | > 2000 |
| CC(C)(c1ccc(N2CCC(N3CC(NS(C)(=O)=O)C3)CC2)cc1)c1cc(Cl)c(OCCCl)c(C#N)c1 [Compound A47] | > 2000 |
| CC(C)(c1ccc(N2CCN(C3CC(NS(C)(=O)=O)C3)CC2)cc1)c1cc(Cl)c(OCCCl)c(C#N)c1 (stereo not drawn) [Compound A48] | > 2000 |
| CS(=O)(=O)Nc1cnc2cc(-c3ccc(Oc4cc(Cl)c(OCCCl)c(C#N)c4)cc3)cnc2n1 [Compound A49] | 500 to 2000 |
| CC(C)(c1ccc(-c2cnc(N3CC(NS(C)(=O)=O)C3)c(F)c2)cc1)c1cc(Cl)c(OCCCl)c(C#N)c1 [Compound A50] | < 500 |
| CC(C)(c1ccc(OC[C@]2(C)C[C@H](NS(C)(=O)=O)C2)cc1)c1cc(Cl)c(OCCCl)c(C#N)c1 [Compound A51] | > 2000 |
| CC(C)(c1ccc(OCc2ccnc(NS(C)(=O)=O)n2)cc1)c1cc(Cl)c(OC2CCC2)c(C#N)c1 [Compound A52] | 500 to 2000 |
| CC(C)(c1ccc(-c2ccc(NC3CN(S(C)(=O)=O)C3)nc2)cc1)c1cc(Cl)c(OCCCl)c(C#N)c1 [Compound A53] | < 500 |
| CC(C)(c1ccc(-c2ccc(N3CCC(NS(C)(=O)=O)C3)nc2)cc1)c1cc(Cl)c(OCCCl)c(C#N)c1 (stereo not drawn) [Compound A54] | < 500 |
| CC(C)(c1ccc(-c2ccc(N3CC(CNS(C)(=O)=O)C3)nc2)cc1)c1cc(Cl)c(OCCCl)c(C#N)c1 [Compound A55] | < 500 |
| CC(C)(c1ccc(OCc2ccnc(NS(C)(=O)=O)n2)cc1)c1cc(Cl)c(OC2COC2)c(C#N)c1 [Compound A56] | > 2000 |
| CC(C)(c1ccc(-c2ccc(N3CCC(NS(C)(=O)=O)CC3)nc2)cc1)c1cc(Cl)c(OCCCl)c(C#N)c1 [Compound A58] | > 2000 |
| CC(C)(c1ccc(-c2ccc(N3CCCC(NS(C)(=O)=O)C3)nc2)cc1)c1cc(Cl)c(OCCCl)c(C#N)c1 (stereo not drawn) [Compound A59] | 500 to 2000 |
| CC(C)(c1ccc(-c2ccc(N3CCN(S(C)(=O)=O)CC3)nc2)cc1)c1cc(Cl)c(OCCCl)c(C#N)c1 [Compound A60] | 500 to 2000 |
| CS(=O)(=O)Nc1nc2ccc(-c3ccc(Oc4cc(Cl)c(OCCCl)c(C#N)c4)cc3)cc2o1 [Compound A61] | 500 to 2000 |
| CC(C)(c1ccc(OCc2ccnc(NS(C)(=O)=O)n2)cc1)c1cc(Cl)c(OC2CC2)c(C#N)c1 [Compound A62] | 500 to 2000 |
| CC(C)(c1ccc(OC[C@H]2CC[C@H](NS(C)(=O)=O)CC2)cc1)c1cc(Cl)c(OCCCl)c(C#N)c1 [Compound A63] | 500 to 2000 |
| CC(C)(c1ccc(OC[C@H]2C[C@H](CNS(C)(=O)=O)C2)cc1)c1cc(Cl)c(OCCCl)c(C#N)c1 [Compound A64] | 500 to 2000 |
| CS(=O)(=O)Nc1nccc2cc(-c3ccc(Oc4cc(Cl)c(OCCCl)c(C#N)c4)cc3)ccc12 [Compound A65] | > 2000 |
| CS(=O)(=O)Nc1nccc2nc(-c3ccc(Oc4cc(Cl)c(OCCCl)c(C#N)c4)cc3)ccc12 [Compound A66] | > 2000 |
| COc1c(Cl)cc(N(CC(F)(F)F)c2ccc(-c3ccc4nc(NS(C)(=O)=O)cnc4c3)cc2)cc1C#N [Compound A67] | 500 to 2000 |
| CS(=O)(=O)NC1CN(c2ncc(-c3ccc(N(CC(F)(F)F)c4cc(Cl)c(OCCCl)c(C#N)c4)cc3)cn2)C1 [Compound A68] | < 500 |
| CC(C)(c1ccc(-c2ccc(N3CC(NS(C)(=O)=O)C3)nn2)cc1)c1cc(Cl)c(OCCCl)c(C#N)c1 [Compound A69] | 500 to 2000 |
| CS(=O)(=O)NC1CN(c2ncc(-c3ccc(Oc4cc(Cl)c(OCCCl)c(C#N)c4)cc3)cn2)C1 [Compound A70] | > 2000 |
| CC(C)(c1ccc(OCC2CC3(C2)CN(S(C)(=O)=O)C3)cc1)c1cc(Cl)c(OCCCl)c(C#N)c1 [Compound A71] | 500 to 2000 |
